Source: the supplement of paper PMC10307832

Experiments:
Test in all cases: relative viability (nuclei count vs DMSO), 5 days (fraction); higher = more cells survive
[1] = compound: Cc1cc(Nc2cc(N3CCN(C)CC3)nc(Sc3ccc(NC(=O)C4CC4)cc3)n2)n[nH]1 [Tozasertib]
Outline: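 Viability here means nuclei in treated wells divided by nuclei in vehicle wells, reported as the median across plates. Only plates with control CV below 25% and at least one doubling passed. Lung cancer cell lines in 1536-well plates were exposed to five √10-spaced library-drug doses for 5 days and counted from 4× Hoechst images in MetaXpress.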

[2] = compound: Cc1cc(Nc2cc(N3CCN(C)CC3)nc(Sc3ccc(NC(=O)C4CC4)cc3)n2)n[nH]1 [Tozasertib] + COc1cccc2cc(-c3nc([C@H]4CC[C@H](C(=O)O)CC4)n4ncnc(N)c34)[nH]c12 [OSI-027] (partner 0.5 µM)
Outline: (§1)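 Relative viability is defined as nuclei in treated wells over nuclei in vehicle wells. Duplicate plates were run and medians reported. Lung cancer cell lines in 1536-well plates were dosed by pin tool one day after seeding, with one drug or with a fixed anchor-drug dose plus five library-drug doses (not always all listed) in √10 steps, and nuclei were counted after 5 days.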

[3] = compound: Cc1cc(Nc2cc(N3CCN(C)CC3)nc(Sc3ccc(NC(=O)C4CC4)cc3)n2)n[nH]1 [Tozasertib] + CC(C)C[C@H](NC(=O)[C@H](Cc1ccccc1)NC(=O)c1cnccn1)B(O)O [Bortezomib] (partner 0.002 µM)
Outline: as §1

[4] = compound: Cc1cc(Nc2cc(N3CCN(C)CC3)nc(Sc3ccc(NC(=O)C4CC4)cc3)n2)n[nH]1 [Tozasertib] + CS(=O)(=O)N1CCN(Cc2cc3nc(-c4cccc5[nH]ncc45)nc(N4CCOCC4)c3s2)CC1 [Pictilisib] (partner 1 µM)
Outline: as §1

| Cell Line | relative viability ([1]; 0.004 µM) | relative viability ([1]; 0.01265 µM) | relative viability ([1]; 0.04 µM) | relative viability ([1]; 0.1 µM, anchor plate) | relative viability ([1]; 0.1265 µM) | relative viability ([2]; first compound 0.004 µM) | relative viability ([2]; first compound 0.01265 µM) | relative viability ([2]; first compound 0.04 µM) | relative viability ([2]; first compound 0.1265 µM) | relative viability ([3]; first compound 0.004 µM) | relative viability ([3]; first compound 0.01265 µM) | relative viability ([3]; first compound 0.04 µM) | relative viability ([3]; first compound 0.1265 µM) | relative viability ([4]; first compound 0.004 µM) | relative viability ([4]; first compound 0.01265 µM) | relative viability ([4]; first compound 0.04 µM) | relative viability ([4]; first compound 0.1265 µM) |
| --- | --- | --- | --- | --- | --- | --- | --- | --- | --- | --- | --- | --- | --- | --- | --- | --- | --- |
| HCC-366 | 0.991 | 1.01 | 1.08 | 0.123 | 0.93 | 0.991 | 0.862 | 1.01 | 0.575 | 1.2 | 1 | 1.15 | 0.53 | 0.106 | 0.135 | 0.122 | 0.0817 |
| HCC-827 | 1.1 | 1.04 | 1.09 | 0.414 | 0.976 | 0.314 |  | 0.789 | 0.582 | 1.03 | 1.04 | 1.06 | 0.839 | 0.872 | 0.999 | 1.14 | 0.918 |
| HOP-62 | 1.02 | 0.992 | 0.987 | 0.398 | 0.88 | 0.902 | 0.844 | 0.941 | 0.793 | 0.735 | 0.713 | 0.404 | 0.67 | 0.741 | 0.605 | 0.926 | 0.565 |
| LC-2-ad | 1.06 | 0.913 | 0.928 | 0.453 | 0.494 | 0.941 | 0.692 | 0.734 | 0.374 | 0.949 | 0.978 | 1.04 | 0.427 | 0.505 | 0.516 | 0.427 | 0.127 |
| LCLC-97TM1 | 1.07 | 0.94 | 0.906 | 0.236 | 0.396 | 0.571 | 0.507 | 0.526 | 0.371 | 0.933 | 0.271 | 0.624 | 0.106 |  | 0.181 | 0.222 | 0.11 |
| LCLC-103H | 1.06 | 1.06 | 1.02 | 0.499 | 0.952 | 0.504 |  | 0.503 | 0.388 | 1.04 | 1.14 | 1.2 | 0.974 | 0.694 | 0.568 | 0.634 | 0.498 |
| LK-2 | 1.09 | 0.847 | 1.09 | 0.176 | 0.489 | 0.184 | 0.199 | 0.198 | 0.182 |  |  |  |  | 0.715 |  | 0.61 | 0.359 |
| LOU-NH91 | 0.787 | 0.918 | 1.1 | 0.659 | 0.9 |  | 0.675 | 0.763 | 0.728 | 0.423 | 0.51 | 0.485 | 0.408 | 0.541 | 0.526 | 0.513 | 0.48 |
